In patent US11066447B2, “Aureobasidium derivatives and methods of synthesis” (AureoGen Biosciences, Inc., priority 2016, dated 2021):
In brackets after ≈: the same amount, converted by molar mass. Several values for one entry are separate records, joined by “and”; a condition that tells them apart may be missing. Identical values can stand only once. Like-named read-outs stand apart in the source and are kept apart here. Numbered stars: 1 amine (or outer) side, 2 acyl side, 3 side chain; on linkers, the order of the positions; unused ones are H or OH. Square brackets hold non-standard residues; d marks the D form. Peptide text beside a SMILES is read from it. ξ: configuration not given here. X8 = CC(=O)N1CCN(c2ccc(-c3cccc(C[C@@H](C(=O)[*:2])N(C)[*:1])c3)cn2)CC1; X1 = CC(C)N1CCN(c2ccc(-c3cccc(C[C@@H](C(=O)[*:2])N(C)[*:1])c3)cc2)CC1; X7 = CC(C)N1CCN(c2ccc(-c3cccc(C[C@H](N[*:1])C(=O)[*:2])c3)cc2)CC1; X9 = CN1CCN(c2cccc(-c3cccc(C[C@@H](C(=O)[*:2])N(C)[*:1])c3)n2)CC1; X10 = CN([C@@H](Cc1cccc(-c2ccc(N3CCNCC3)nc2)c1)C(=O)[*:2])[*:1]; NMePhe(3-(3-pyridyl)) = CN[C@@H](Cc1cccc(-c2cccnc2)c1)C(=O)O; X36 = CN([C@@H](Cc1ccc(-c2cccnc2)cc1)C(=O)[*:2])[*:1]; Hmp(2R,3S) = CC[C@H](C)[C@@H](O)C(=O)O; NMeVal(β-OH) = CN[C@H](C(=O)O)C(C)(C)O; X6 = CCC(C)[C@@H](O[*:1])C(=O)[*:2]; ξNMeVal(3-OH) = CNC(C(=O)O)C(C)(C)O; Ile(3ξ) = CCC(C)[C@H](N)C(=O)O; NMeV = CN[C@H](C(=O)O)C(C)C; ξL = CC(C)CC(N)C(=O)O

Tests used:
[1] = system: C. albicans MMX 2000 ATCC 10231; experiment: MIC assay (CLSI microdilution); format: cell-based; details: Candida albicans, ATCC10231, RPMI plus 0.002% Tween-80; read-out: MIC
[2] = system: C. neoformans MMX 0634 ATCC 90112; experiment: MIC assay (CLSI microdilution); format: cell-based; details: Cryptococcus neoformans, ATCC90112, 72 h, 72 hour; RPMI plus 0.002% Tween-80; read-out: MIC
[3] = system: C. parapsilosis MMX 2323 ATCC 22019; experiment: MIC assay (CLSI microdilution); format: cell-based, Candida parapsilosis; details: read-out: MIC
In short: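 Broth microdilution MIC testing of Candida parapsilosis ATCC 22019 followed CLSI methods in RPMI-1640, with or without 0.002% Tween-80. Yeast grown 48 hours at 35° C on Sabouraud dextrose agar was suspended to a 0.5 McFarland standard and diluted 1:100 to roughly 0.5-2.5×10^3 CFU/mL. The MIC was the lowest concentration preventing visible growth.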

A. flavus MMX 5948 = experiment: MIC/MEC assay (CLSI microdilution); format: cell-based; details: Aspergillus flavus, MMX5948, 48 h; for minimal effective concentration: RPMI plus 0.002% Tween-80; for MIC: RPMI plus 0.002% Tween-80, read-out: MIC
In short: (§1)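 Test agents were assayed by CLSI broth microdilution in Tween-80-supplemented (0.002%) RPMI-1640 against spore inocula of approximately 0.2-2.5×10^4 CFU/mL. Strain MMX 5280 was run both with and without Tween-80.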

A. fumigatus MMX 5944 = experiment: MIC/MEC assay (CLSI microdilution); format: cell-based; details: Aspergillus fumigatus, MMX5944, 48 h; for minimal effective concentration: RPMI plus 0.002% Tween-80; for MIC: RPMI plus 0.002% Tween-80, read-out: MIC
In short: as §1

[4] = system: A. fumigatus MMX 6781 ATCC MYA-4609; experiment: MIC/MEC assay (CLSI microdilution); format: cell-based
In short: as §1

[5] = system: A. fumigatus MMX 6782 ATCC 13073; experiment: MIC/MEC assay (CLSI microdilution); format: cell-based; details: for minimal effective concentration: RPMI plus 0.002% Tween-80, read-out: MEC
In short: as §1

[6] = system: A. fumigatus from Aureogen; experiment: MIC/MEC assay (CLSI microdilution); format: cell-based; details: Aspergillus fumigatus, 48 h; for minimal effective concentration: RPMI plus 0.002% Tween-80; for MIC: RPMI plus 0.002% Tween-80, read-out: MIC
In short: as §1

[7] = system: A. niger MMX 0624 ATCC 16888; experiment: MIC/MEC assay (CLSI microdilution); format: cell-based; details: Aspergillus niger, ATCC16888, 48 h; for minimal effective concentration: RPMI plus 0.002% Tween-80, read-out: MEC; for MIC: RPMI plus 0.002% Tween-80, read-out: MIC
In short: as §1

[8] = system: A. fumigatus MMX 5280 ATCC MYA-3626; experiment: MIC/MEC assay (CLSI microdilution); format: cell-based, Aspergillus fumigatus
In short: as §1

[9] = system: C. albicans MMX 2000 ATCC 10231; experiment: MIC assay (CLSI microdilution); format: cell-based; details: Candida albicans, ATCC10231, Without Tween-80; read-out: MIC
A. fumigates = experiment: Antifungal activity of separated positional isomers of Compound X; format: cell-based
Procedure: Test Procedure. The MIC assay method followed the procedure described by CLSI (1, 2) and employed automated liquid handlers to conduct serial dilutions and liquid transfers. Automated liquid handlers included the Multidrop 384 (Labsystems, Helsinki, Finland), Biomek 2000 and Biomek FX (Beckman Coulter, Fullerton Calif.). The wells in columns 2-12 in standard 96-well microdilution plates (Costar 3795) were filled with 150 μl of the appropriate diluent (95% EtOH for investigational compounds, 100% DMSO for amphotericin B). These assay plates would become the ‘mother plates’ from which the assay ‘daughter plates’ would be prepared. The drugs (300 μL at 40× the desired top concentration in the test plates) were dispensed into the appropriate well in Column 1 of the mother plates. The Biomek 2000 was used to make two-fold serial dilutions through Column 11 in the “mother plate”. The wells of Column 12 contained no drug and served as the organism growth control wells.
The microplates were viewed from the bottom using a plate viewer. […] The MIC was read and recorded as the lowest concentration of drug that inhibited visible growth of the organism. MECs were read where the growth shifted to a small, rounded, compact hyphal form as compared to the hyphal growth seen in the growth control well. […]

[10] = ATCC22019, RPMI plus 0.002% Tween-80
[11] = RPMI plus 0.002% Tween-80, 48 hr
[12] = Aspergillus fumigatus, ATCC13073, 48 h
[13] = Aspergillus fumigatus, ATCC13073, 48 h, RPMI plus 0.002% Tween-80, read-out: MIC
[14] = Aspergillus fumigatus, 48 h, Without Tween-80, read-out: MIC
[15] = Aspergillus fumigatus, 48 h, RPMI plus 0.002% Tween-80, read-out: MEC
[16] = Aspergillus fumigatus, 48 h, RPMI plus 0.002% Tween-80, read-out: MIC
[17] = Aspergillus fumigatus, RPMI plus 0.002% Tween-80, 48 hr
[18] = Aspergillus fumigatus, 48 h, Without Tween-80, read-out: MEC

| Compound | MIC [1] [µg/mL] | MIC [2] [µg/mL] | MIC [3, 10] [µg/mL] | MIC ([3]; ATCC22019, Without Tween-80) [µg/mL] | minimal effective concentration (A. flavus MMX 5948) [µg/mL] | MIC (A. flavus MMX 5948) [µg/mL] | minimal effective concentration (A. fumigatus MMX 5944) [µg/mL] | MIC (A. fumigatus MMX 5944) [µg/mL] | MEC [4, 11] [µg/mL] | MIC [4, 11] [µg/mL] | minimal effective concentration [5, 12] [µg/mL] | MIC [5, 13] [µg/mL] | minimal effective concentration [6] [µg/mL] | MIC [6] [µg/mL] | minimal effective concentration [7] [µg/mL] | MIC [7] [µg/mL] | MIC [8, 14] [µg/mL] | MIC [9] [µg/mL] | minimal effective concentration [8, 15] [µg/mL] | MIC [8, 16] [µg/mL] | also measured |
| --- | --- | --- | --- | --- | --- | --- | --- | --- | --- | --- | --- | --- | --- | --- | --- | --- | --- | --- | --- | --- | --- |
| CC[C@H](C)[C@@H]1NC(=O)[C@@H]2CCCN2C(=O)[C@H](Cc2cccc(-c3ccc(N4CCNCC4)nc3)c2)N(C)C(=O)[C@H](Cc2ccccc2)NC(=O)[C@H](C(C)C)N(C)C(=O)[C@@H]([C@@H](C)CC)OC(=O)[C@H](C(C)(C)O)N(C)C(=O)[C@H](CC(C)C)NC(=O)[C@H](C(C)C)N(C)C1=O [Compound 30] (cyclo(F[X10]PI[NMeV]L[NMeVal(β-OH)][Hmp(2R,3S)][NMeV])) | 0.015 | 0.25 | 0.06 | 2 (≈ 1.58 µM) | 0.12 | 0.5 | 0.5 | 1 | 1 | 2 | 0.5 | 2 | 0.5 | 1 | 0.5 | 0.5 | 2 (≈ 1.58 µM) | 0.5 (≈ 0.396 µM) | – | – | MEC [8, 11]: 1 µg/mL; MIC [8, 11]: 2 µg/mL; MEC ([8]; Without Tween-80, 48 hr): 1 µg/mL |
| CC[C@H](C)[C@@H]1NC(=O)[C@@H]2CCCN2C(=O)[C@H](Cc2cccc(-c3ccc(N4CCN(C(C)C)CC4)cc3)c2)N(C)C(=O)[C@H](Cc2cccc(-c3ccc(N4CCN(C(C)C)CC4)cc3)c2)NC(=O)[C@H](C(C)C)N(C)C(=O)[C@@H]([C@@H](C)CC)OC(=O)[C@H](C(C)(C)O)N(C)C(=O)[C@H](CC(C)C)NC(=O)[C@H](C(C)C)N(C)C1=O [Compound 31] (cyclo(I[NMeV]L[NMeVal(β-OH)][Hmp(2R,3S)][NMeV][X7][X1]P)) | 0.06 | 1 | 0.5 | 2 (≈ 1.33 µM) | 0.12 | 0.5 | 0.5 | 1 | 1 | 2 | – | – | 0.25 | 0.5 | 0.5 | 1 | 1 (≈ 0.664 µM) | 1 (≈ 0.664 µM) | 0.5 | 2 | MEC [5, 11]: 1 µg/mL; MIC [5, 11]: 2 µg/mL; MEC ([8]; Without Tween-80, 48 hr): 1/1 μg/mL and 1 μg/mL; MIC ([8]; Without Tween-80, 48 hr): 2 µg/mL (≈ 1.33 µM) |
| CC[C@H](C)[C@@H]1NC(=O)[C@@H]2CCCN2C(=O)[C@H](Cc2cccc(-c3ccc(N4CCN(C(C)=O)CC4)nc3)c2)N(C)C(=O)[C@H](Cc2ccccc2)NC(=O)[C@H](C(C)C)N(C)C(=O)[C@@H]([C@@H](C)CC)OC(=O)[C@H](C(C)(C)O)N(C)C(=O)[C@H](CC(C)C)NC(=O)[C@H](C(C)C)N(C)C1=O [Compound 32] (cyclo(F[X8]PI[NMeV]L[NMeVal(β-OH)][Hmp(2R,3S)][NMeV])) | 0.03 | 2 | 0.25 | 2 (≈ 1.53 µM) | 0.25 | 1 | 1 | > 64 | – | – | > 64 | > 64 | > 64 | > 64 | 0.5 | 1 | > 64 | 2 (≈ 1.53 µM) | 2 | > 64 | MIC [4, 16]: > 64 µg/mL; minimal effective concentration [4, 17]: > 64 µg/mL; minimal effective concentration [8, 18]: > 64 µg/mL |
| CC[C@H](C)[C@@H]1NC(=O)[C@@H]2CCCN2C(=O)[C@H](Cc2cccc(-c3cccc(N4CCN(C)CC4)n3)c2)N(C)C(=O)[C@H](Cc2ccccc2)NC(=O)[C@H](C(C)C)N(C)C(=O)[C@@H]([C@@H](C)CC)OC(=O)[C@H](C(C)(C)O)N(C)C(=O)[C@H](CC(C)C)NC(=O)[C@H](C(C)C)N(C)C1=O [Compound 33] (cyclo(F[X9]PI[NMeV]L[NMeVal(β-OH)][Hmp(2R,3S)][NMeV])) | 0.004 | 0.06 | 0.03 | 0.5 (≈ 0.392 µM) | 0.12 | 0.5 | 0.5 | 0.5 | – | – | 0.06 | 0.12 | 0.06 | 0.06 | 0.03 | 0.03 | 1 (≈ 0.783 µM) | 0.5 (≈ 0.392 µM) | 0.015 | 0.25 | MIC [4, 16]: 0.12 µg/mL; minimal effective concentration [4, 17]: 0.03 µg/mL; minimal effective concentration [8, 18]: 0.5 µg/mL |
| CCC(C)[C@@H]1NC(=O)[C@@H]2CCCN2C(=O)[C@H](Cc2cccc(-c3cccnc3)c2)N(C)C(=O)[C@H](Cc2ccccc2)NC(=O)[C@H](C(C)C)N(C)C(=O)[C@@H](C(C)CC)OC(=O)C(C(C)(C)O)N(C)C(=O)C(CC(C)C)NC(=O)[C@H](C(C)C)N(C)C1=O (stereo partly drawn) [meta-substituted positional isomer of Compound X] (cyclo(F[NMePhe(3-(3-pyridyl))]P[Ile(3ξ)][NMeV][ξL][ξNMeVal(3-OH)][X6][NMeV])) | – | – | – | – | – | – | – | – | – | – | – | – | – | – | – | – | – | – | – | – | MIC (A. fumigates): 0.6 µg/mL (≈ 0.509 µM) |
| CCC(C)[C@@H]1NC(=O)[C@@H]2CCCN2C(=O)[C@H](Cc2ccc(-c3cccnc3)cc2)N(C)C(=O)[C@H](Cc2ccccc2)NC(=O)[C@H](C(C)C)N(C)C(=O)[C@@H](C(C)CC)OC(=O)C(C(C)(C)O)N(C)C(=O)C(CC(C)C)NC(=O)[C@H](C(C)C)N(C)C1=O (stereo partly drawn) [para substituted positional isomer of Compound X] (cyclo(F[X36]P[Ile(3ξ)][NMeV][ξL][ξNMeVal(3-OH)][X6][NMeV])) | – | – | – | – | – | – | – | – | – | – | – | – | – | – | – | – | – | – | – | – | MIC (A. fumigates): > 2.5 µg/mL |
